Data published in PMC6017957, “Synthesis, Anti-Proliferative Activity Evaluation and 3D-QSAR Study of Naphthoquinone Derivatives as Potential Anti-Colorectal Cancer Agents” (Molecules : A Journal of Synthetic Chemistry and Natural …, 2018).
Read-outs that look alike come from different tables or passages of the source.

What was measured:
fibroblasts PCS-201-012 = test: MTT cytotoxicity assay against normal dermal fibroblasts; assay type: cell-based; details: Fibroblast, value with 95% confidence interval, read-out: PCS-201-012 IC50 μM (95% CI)
Description: (§1) The toxicity of the thirty-six compounds was determined in vitro by means of the MTT assay. Doxorubicin, a drug widely used to treat different types of cancer, was employed as a positive control, whereas the solvent (DMSO) was used as negative control.
(§2) Test compounds were dissolved in DMSO to obtain stock solutions that were maintained as small aliquots at −20 °C. At time of drug addition, an aliquot was thawed and diluted to obtain the desired final maximum test concentration of 100 μM, with complete medium. The final percentage of DMSO in the wells was less than 1% (v/v). […] Anti-Proliferative Assay
(§3) Doxorubicin, a drug widely used to treat different types of cancer, was used as a positive control. After 48 h, the medium was removed and cells were incubated with MTT solution (0.25 mg/mL). Four hours later, the medium was carefully aspired and formazan crystals were dissolved in DMSO (100 μL). The OD550 was measured using a plate reader (Multiskan Go, Thermo Scientific, Waltham, MA, USA). […] The selectivity index (SI), was calculated as a ratio of IC50Fibroblast/IC50HT-29cells.
(§4) The results are expressed as the mean of triplicate measurements in at least two independent experiments.

[1] = tested on: HT-29 colorectal cancer cells; test: MTT anti-proliferative assay against HT-29 cells; assay type: cell-based, human; details: for Selectivity Index: SI = IC50Fibroblast/IC50HT-29cells; for Cytotoxic activity category against HT-29: classified by HT-29 IC50
Description: as §1, §2, §3, §4

[2] = Homo sapiens, HT-29, 48 h, MTT, 48 h, 0–100 µM, value with 95% confidence interval, read-out: HT-29 IC50 μM (95% CI)
[3] = Homo sapiens, HT-29, −logIC50 against HT-29, CoMFA training and test sets, read-out: pIC50 Experimental (converted)

Molecule COC(=O)c1nc2c(s1)C(=O)c1ccccc1C2=O [Compound 5c, Methyl 4,9-Dioxo-4,9-dihydronaphtho[2,3-d][1,3]thiazole-2-carboxylate] has an IC50 (fibroblasts PCS-201-012) of 7.26 µM, an IC50 [1, 2] of 13.9 µM and an IC50 [1, 3] of 13.9 µM. The “Selectivity Index” value [1] was 0.52.

Work on CCCCc1cc2c(o1)C(=O)c1ccccc1C2=O [Compound 4f, 2-Butylnaphtho[2,3-b]furan-4,9-dione] yielded an IC50 (fibroblasts PCS-201-012) of 10 µM, an IC50 [1, 2] of 23.7 to 88.1 µM and an IC50 [1, 3] of 21.7 µM. The IC50 ([1]; MTT, 48 h, 0–100 µM, value with 95% confidence interval, read-out: HT-29 IC50 μM (95% CI)) was 21.7 µM and the “Selectivity Index” value [1] was 0.46.

CCc1[nH]c2c(c1CC)C(=O)c1ccccc1C2=O [Compound 2d, 2,3-Diethyl-1H-benzo[f]indole-4,9-dione] showed a melting point of 205 to 209 °C, an IC50 (fibroblasts PCS-201-012) of 51.5 µM and an IC50 [1, 2] of 68.7 µM. For the same molecule, the IC50 [1, 3] was 68.7 µM and the “Selectivity Index” value [1] was 0.75.

For C/C=C/C1=C(O)C(=O)c2ccccc2C1=O [Compound 4a, 2-Hydroxy-3-[(1E)-prop-1-en-1-yl]naphthalene-1,4-dione], the IC50 [1, 2] was > 100 µM.

Molecule O=C(c1cccs1)c1cc2c(s1)C(=O)c1c(O)cccc1C2=O [Compound 7, 8-hydroxy-2-(thiophen-2-ylcarbonyl)naphtho[2,3-b]thiophene-4,9-dione] has an IC50 (fibroblasts PCS-201-012) of 4.56 µM, an IC50 [1, 2] of 1.73 µM and an IC50 [1, 3] of 1.73 µM.

Work on CCc1cc2c(o1)-c1ccccc1C(=O)C2=O [Compound 4h, 2-Ethylnaphtho[1,2-b]furan-4,5-dione] yielded a melting point of 136 °C, an IC50 (fibroblasts PCS-201-012) of 3.68 µM and an IC50 [1, 2] of 13.7 µM. The IC50 [1, 3] was 13.7 µM, the “Selectivity Index” value [1] was 0.27 and the “Cytotoxic activity category against HT-29” value (shortened to “Cytotoxic activity category”) [1] was “highly active”.

Molecule C=C(C)C1(C)CC2=C(O1)C(=O)c1ccccc1C2=O (centres unmarked) [Compound 4o, 2-Methyl-2-(prop-1-en-2-yl)-2,3-dihydronaphtho[2,3-b]furan-4,9-dione] has a melting point of 135 °C, an IC50 (fibroblasts PCS-201-012) of 47.9 µM and an IC50 [1, 2] of 25.8 µM.

With CCCC/C=C/C1=C(O)C(=O)c2ccccc2C1=O [Compound 4c, 2-[(1E)-Hex-1-en-1-yl]-3-hydroxynaphthalene-1,4-dione] the melting point was 85 °C and the IC50 [1, 2] was > 100 µM.

CC1=C(Cl)C(=O)c2ccccc2C1=O [Compound 3c, 2-Chloro-3-methylnaphthalene-1,4-dione] gave a melting point of 158 °C, an IC50 (fibroblasts PCS-201-012) of 9.92 µM and an IC50 [1, 2] of 11 µM. The IC50 [1, 3] was 11 µM and the “Selectivity Index” value [1] was 0.90.

Work on Cc1cc2c(o1)-c1ccccc1C(=O)C2=O [Compound 4g, 2-Methylnaphtho[1,2-b]furan-4,5-dione] yielded a melting point of 124 °C, an IC50 (fibroblasts PCS-201-012) of 1.93 µM and an IC50 [1, 2] of 8.36 µM. For the same molecule, the IC50 [1, 3] was 8.36 µM, the “Selectivity Index” value [1] was 0.23 and the “Cytotoxic activity category” value [1] was “highly active”.

CCc1noc(-c2cc3c(s2)C(=O)c2ccccc2C3=O)n1 [Compound 9, 2-(3-ethyl-1,2,4-oxadiazol-5-yl)naphtho[2,3-b]thiophene-4,9-dione] showed an IC50 (fibroblasts PCS-201-012) of 1.03 µM, an IC50 [1, 2] of 3.07 µM and an IC50 [1, 3] of 3.07 µM. The “Selectivity Index” value [1] was 0.34.

With Cc1cc2c([nH]1)C(=O)c1ccccc1C2=O [Compound 2b, 2-Methyl-1H-benzo[f]indole-4,9-dione] the melting point was 302 to 304 °C and the IC50 [1, 2] was > 100 µM.

For O=C1C(=O)c2ccccc2C2=C1CC(c1ccccc1)O2 (centres unmarked) [Compound 4r, 2-Phenyl-2,3-dihydronaphtho[1,2-b]furan-4,5-dione], the IC50 (fibroblasts PCS-201-012) was 8.2 µM, the IC50 [1, 2] was 14.8 µM and the “Selectivity Index” value [1] was 0.56.

With O=C1c2ccccc2C(=O)c2oc(-c3ccccc3)cc21 [Compound 4k, 2-Phenylnaphtho[2,3-b]furan-4,9-dione] the melting point was 220 °C and the IC50 [1, 2] was > 10 µM.

For CC1=C(N)C(=O)c2ccccc2C1=O [Compound 3a, 2-Amino-3-methylnaphthalene-1,4-dione], the IC50 [1, 2] was > 100 µM.

With O=C1c2ccccc2C(=O)C2OC12 (centres unmarked) [Compound 1a, 1a,7a-Dihydronaphtho[2,3-b]oxirene-2,7-dione] the IC50 [1, 2] was 10.8 µM and the IC50 [1, 3] was 10.8 µM.

With CCN(CC)C(=O)c1cc2c(s1)C(=O)c1c(Cl)cccc1C2=O [Compound 8, 8-chloro-N,N-diethyl-4,9-dioxo-4,9-dihydronaphtho[2,3-b]thiophene-2-carboxamide] the IC50 (fibroblasts PCS-201-012) was 2.56 µM, the IC50 [1, 2] was 6.89 µM and the IC50 [1, 3] was 6.89 µM. The “Selectivity Index” value [1] was 0.37.

For Cc1c(C(C)C)[nH]c2c1C(=O)c1ccccc1C2=O [Compound 2e, 3-Methyl-2-(propan-2-yl)-1H-benzo[f]indole-4,9-dione], the melting point was 245 to 248 °C and the IC50 [1, 2] was > 100 µM.

For NC1=CC(=O)c2ccccc2C1=O [Compound 2, 2-Aminonaphthalene-1,4-dione], the IC50 (fibroblasts PCS-201-012) was 7.34 µM, the IC50 ([1]; Homo sapiens, HT-29, MTT, 48 h, 0–100 µM, value with 95% confidence interval, read-out: HT-29 IC50 μM (95% CI)) was 24.6 µM and the IC50 ([1]; Homo sapiens, −logIC50 against HT-29, CoMFA training and test sets, read-out: pIC50 Experimental (converted)) was 24.6 µM. For the same molecule, the “Selectivity Index” value [1] was 0.30.

With COC(=O)C1C2=C(OC1c1ccccc1)C(=O)c1ccccc1C2=O (centres unmarked) [Compound 4n, Methyl 4,9-Dioxo-2-phenyl-2,3,4,9-tetrahydronaphtho[2,3-b]furan-3-carboxylate] the melting point was 167 °C and the IC50 [1, 2] was > 100 µM.

Molecule COc1cccc2c1C(=O)c1c(O)c3c(c(O)c1C2=O)C[C@@](O)(C(=O)CO)C[C@@H]3O[C@H]1C[C@H](N)[C@H](O)[C@H](C)O1 [Doxorubicin, reference compound] has an IC50 [1, 2] of 1.07 µM.

In the case of O=C1c2ccccc2C(=O)c2[nH]ccc21 [Compound 2a, 1H-Benzo[f]indole-4,9-dione], the melting point is reported as 281 to 283 °C and the IC50 [1, 2] is reported as > 100 µM.

With O=C1C2=C(OC(c3ccccc3)C2)C(=O)c2ccccc21 (centres unmarked) [Compound 4q, 2-Phenyl-2,3-dihydronaphtho[2,3-b]furan-4,9-dione] the IC50 (fibroblasts PCS-201-012) was 9.16 µM, the IC50 [1, 2] was 30.2 µM and the “Selectivity Index” value [1] was 0.30.

With CC/C=C/C1=C(O)C(=O)c2ccccc2C1=O [Compound 4b, 2-[(1E)-But-1-en-1-yl]-3-hydroxynaphthalene-1,4-dione] the melting point was 107 °C and the IC50 [1, 2] was > 100 µM.

For Cc1cc2c(o1)C(=O)c1ccccc1C2=O [Compound 4d, 2-Methylnaphtho[2,3-b]furan-4,9-dione], the IC50 (fibroblasts PCS-201-012) was 18.5 µM, the IC50 [1, 2] was 17.6 µM and the IC50 [1, 3] was 17.6 µM. The “Selectivity Index” value [1] was 1.05 and the “Cytotoxic activity category” value [1] was “highly active”.

For CCc1cc2c(o1)C(=O)c1ccccc1C2=O [Compound 4e, 2-Ethylnaphtho[2,3-b]furan-4,9-dione], the IC50 (fibroblasts PCS-201-012) was 20.1 µM, the IC50 [1, 2] was 24.9 µM and the IC50 [1, 3] was 24.9 µM. For the same molecule, the “Selectivity Index” value [1] was 0.80.

In the case of CCN(CC)C(=O)c1cc2c(o1)C(=O)c1ccccc1C2=O [Compound 6, N,N-diethyl-4,9-dioxo-4,9-dihydronaphtho[2,3-b]furan-2-carboxamide], the IC50 (fibroblasts PCS-201-012) is reported as 1.49 µM, the IC50 [1, 2] is reported as 2.67 µM and the IC50 [1, 3] is reported as 2.67 µM. For the same molecule, the “Selectivity Index” value [1] was 0.56 and the “Cytotoxic activity category” value [1] was “highly active”.

With CC(=O)c1cc2c(o1)C(=O)c1ccccc1C2=O [Compound 4m, 2-Acetylnaphtho[2,3-b]furan-4,9-dione] the IC50 (fibroblasts PCS-201-012) was 3.5 µM, the IC50 [1, 2] was 4.61 µM and the “Selectivity Index” value [1] was 0.76. For the same molecule, the “Cytotoxic activity category” value [1] was “highly active”.

Molecule CC12OC1C(=O)c1ccccc1C2=O (centres unmarked) [Compound 3b, 1a-Methyl-1a,7a-dihydronaphtho[2,3-b]oxirene-2,7-dione] has an IC50 [1, 2] of 57.3 µM.

In the case of CCCc1[nH]c2c(c1C)C(=O)c1ccccc1C2=O [Compound 2f, 3-Methyl-2-propyl-1H-benzo[f]indole-4,9-dione], the melting point is reported as 266 to 270 °C and the IC50 [1, 2] is reported as > 100 µM.
